Source: paper PMC12251151, “Understanding Anti-Obesity Potential of Four Porphyrin Compounds by Investigating Pancreatic Lipase Inhibition” (Molecules, 2025)
Like-named read-outs stand apart in the source and are kept apart here.

Legend:
pancreatic lipase (PL) [1] = target: T1, pancreatic lipase (PL) (Sus scrofa, UniProt P00591); experiment: Pancreatic lipase inhibition assay (4-nitrophenyl laurate substrate, absorbance 420 nm); format: biochemical, porcine; settings: 37 °C, 2 h, pH 8.2 Tris-HCl
T1 construct: lipase (porcine pancreas); purchased Shanghai Yuanye Co., Ltd., Shanghai, China; host or cells: porcine pancreas
T1 sequence (P00591 1-450): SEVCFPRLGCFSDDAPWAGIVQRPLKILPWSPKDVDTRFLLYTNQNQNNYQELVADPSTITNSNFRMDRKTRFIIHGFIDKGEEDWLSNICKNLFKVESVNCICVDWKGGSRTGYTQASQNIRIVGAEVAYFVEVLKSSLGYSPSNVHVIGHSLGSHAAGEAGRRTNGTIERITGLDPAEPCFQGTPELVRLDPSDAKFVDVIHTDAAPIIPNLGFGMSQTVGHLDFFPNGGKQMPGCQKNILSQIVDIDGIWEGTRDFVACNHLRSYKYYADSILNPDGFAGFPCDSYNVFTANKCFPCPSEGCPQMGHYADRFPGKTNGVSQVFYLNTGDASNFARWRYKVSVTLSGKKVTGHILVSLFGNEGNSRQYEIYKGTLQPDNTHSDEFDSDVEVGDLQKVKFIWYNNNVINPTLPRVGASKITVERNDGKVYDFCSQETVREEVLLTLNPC
Protocol: A total of 250 mg pancreatic lipase was dissolved in 50 mL ultrapure water. After centrifugation at 5000 r/min for 10 min, the supernatant was taken. Then, 80 mg of 4-nitrophenyl laurate was dissolved in 100 mL of 5 mmol/L sodium acetate solution (pH 5.0, containing 1% triton x-100), and dissolved in a boiling water bath. After cooling to room temperature, it was set aside. […] The blank sample solutions were chromatographic methanol solutions containing 2%, 5%, and 10% DMSO.
The activity of PL was determined by referring to the method and making appropriate modifications. A total of 200 μL of different concentrations of four porphyrin compounds, 500 μL of 4-nitrophenyl laurate (0.80 mg/mL), 400 μL of Tris-HCl buffer (pH 8.2, 0.1 mol/L), and 300 μL of pancreatic lipase (5 mg/mL) were reacted in an incubator at 37 °C for 2 h. The reaction solution was centrifuged at 12,000 rpm for 5 min, and 200 μL of the supernatant was added to a 96-well plate.

pancreatic lipase (PL) [2] = target: T1, pancreatic lipase (PL); experiment: Fluorescence quenching and binding interaction with PL (Stern-Volmer, double logarithmic, Van't Hoff); parameters: species or system porcine; settings: for Fluorescence quenching mechanism on PL: Stern-Volmer analysis; for Fluorescence quenching mechanism on PL / ΔH^0 / ΔS^0: 298-310 K; for Kd: read-out: Ka (binding constant) (converted); for ΔH^0 / ΔS^0: Van't Hoff; for Main driving forces of binding to PL: from signs of ΔH^0 and ΔS^0
Source text: Judged by the Stern–Volmer equation, the formula is referred to (3):(3) F0/F=1+KSV[Q]=1+Kqτ0[Q],
The modified Stern–Volmer equation [34], formula reference (4):(4) F0/F=e^KSV[Q]=e^Kqτ0[Q],
The double logarithmic equation:(5) logF0−F/F=logKa+nlog[Q],
In the formula, F0 and F are the fluorescence intensities of the enzyme before and after the addition of four porphyrin compounds. KSV and Kq represent the fluorescence quenching constant and the quenching rate constant, respectively. τ0 (10^−8 s) is the average lifetime of the fluorescent molecule in the absence of the fluorescence quencher. [Q] denotes the concentration of the porphyrin compound. Ka is the binding constant. n is the number of binding sites.
The relevant thermodynamic parameters were calculated by Equations (6) and (7), and the Van’t Hoff curves of four porphyrin compounds and enzymes were obtained:(6) lnKa=−ΔH^0/RT+ΔS^0/R, (7) ΔG^0=ΔH^0−TΔS^0=−RTlnKa,
The method of Li et al. was referred to and appropriate changes were made. A series of concentrations of porphyrin compounds were mixed with pancreatic lipase (5 mg/mL) at a volume ratio of 1:1 and incubated at 298, 304, and 310 K for 5 min. The excitation wavelength of the Hitachi fluorescence spectrometer F-7000 ([…], Japan) was set to 280 nm, the slit width was set to 5 nm, and the scanning range was set to 300–500 nm. In order to eliminate the influence of ‘internal filtering effect’ [42], the following formula is used for correction. Fcor=Fobse^(Aex+Aem)/2 , where Fcor and Fobs are the corrected fluorescence intensity and the experimentally measured fluorescence intensity, and Aex and Aem are the UV absorption values of the system at the excitation and emission wavelengths, respectively.

pancreatic lipase (PL) [3] = target: T1, pancreatic lipase (PL); experiment: Mode of pancreatic lipase inhibition (reversibility, Lineweaver-Burk kinetics); format: biochemical, porcine; settings: for Reversibility of PL inhibition: enzyme concentration vs reaction rate plots; for Ki: uncompetitive model, intercept replot
Protocol: In the formula, v , Vmax, Km, and Ki represent reaction rate, maximum reaction rate, Michaelis constant, and free enzyme inhibition constant, respectively. [S] denotes the substrate concentration. [I] denotes the inhibitor concentration.
By analyzing the relationship between enzyme concentration and reaction rate, a fitting straight line was drawn to determine whether it was reversible.
The concentration of PL was fixed at 5 mg/mL, and the concentration of the substrate 4-nitrophenyl laurate was changed (0.40, 0.80, 1.20, 1.60 mg/mL). By analyzing the relationship between the concentration of different substrates and the reaction rate of the enzyme, the Lineweaver–Burk double reciprocal curve was plotted to determine the inhibition type and calculate the inhibition constant.

Row | IC50 (pancreatic lipase (PL) [1]) | Fluorescence quenching mechanism on PL (pancreatic lipase (PL) [2]) | Kq (quenching rate constant) (pancreatic lipase (PL) [2]; T 298 K) | Ksv (fluorescence quenching constant) (pancreatic lipase (PL) [2]; T 298 K) | n (number of binding sites) (pancreatic lipase (PL) [2]; T 298 K) | ΔG^0 (pancreatic lipase (PL) [2]; T 298 K) | Kd (pancreatic lipase (PL) [2]; T 298 K) | Kq (quenching rate constant) (pancreatic lipase (PL) [2]; T 304 K) | Ksv (fluorescence quenching constant) (pancreatic lipase (PL) [2]; T 304 K) | n (number of binding sites) (pancreatic lipase (PL) [2]; T 304 K) | ΔG^0 (pancreatic lipase (PL) [2]; T 304 K) | Kd (pancreatic lipase (PL) [2]; T 304 K) | Kq (quenching rate constant) (pancreatic lipase (PL) [2]; T 310 K) | Ksv (fluorescence quenching constant) (pancreatic lipase (PL) [2]; T 310 K) | n (number of binding sites) (pancreatic lipase (PL) [2]; T 310 K) | ΔG^0 (pancreatic lipase (PL) [2]; T 310 K) | Kd (pancreatic lipase (PL) [2]; T 310 K) | ΔH^0 (pancreatic lipase (PL) [2]) | ΔS^0 (pancreatic lipase (PL) [2]) | Main driving forces of binding to PL (pancreatic lipase (PL) [2]) | Structure (SMILES) | also measured
1 | 236 µM | static quenching | 9.70 ± 0.11 ×10^12 L/mol/s | 9.70 ± 0.11 ×10^4 L/mol | 1.05 | -7.118 ± 0.012 kcal/mol | 6.02 µM | 8.80 ± 0.06 ×10^12 L/mol/s | 8.80 ± 0.06 ×10^4 L/mol | 1.01 | -6.938 ± 0.017 kcal/mol | 10.3 µM | 8.17 ± 0.08 ×10^12 L/mol/s | 8.17 ± 0.08 ×10^4 L/mol | 0.96 | -6.707 ± 0.014 kcal/mol | 18.5 µM | -17.28 ± 0.012 kcal/mol | −142.66 ± 0.06 J/mol/k | hydrogen bonds and van der Waals forces | Nc1ccc(-c2c3nc(c(-c4ccc(N)cc4)c4ccc([nH]4)c(-c4ccc(N)cc4)c4nc(c(-c5ccc(N)cc5)c5ccc2[nH]5)C=C4)C=C3)cc1 [TAPP, 5,10,15,20-Tetrakis (4-aminophenyl) porphyrin] | Reversibility of PL inhibition (pancreatic lipase (PL) [3]): reversible; Vmax (pancreatic lipase (PL) [3]; inhibitor C 118.55 μM): 0.0023 ± 0.0003 ΔOD/min; Vmax (pancreatic lipase (PL) [3]; inhibitor C 177.83 μM): 0.0018 ± 0.0003 ΔOD/min; Vmax (pancreatic lipase (PL) [3]; inhibitor C 237.11 μM): 0.0016 ± 0.0006 ΔOD/min; Vmax (pancreatic lipase (PL) [3]; inhibitor C 266.75 μM): 0.0015 ± 0.0003 ΔOD/min; Vmax (pancreatic lipase (PL) [3]; inhibitor C 296.38 μM): 0.0014 ± 0.0005 ΔOD/min; Ki (pancreatic lipase (PL) [3]): 149.9 ± 0.195 µM
2 | 100 µM | static quenching | 4.60 ± 0.07 ×10^12 L/mol/s | 4.60 ± 0.07 ×10^4 L/mol | 1.30 | -8.076 ± 0.0096 kcal/mol | 1.19 µM | 4.59 ± 0.06 ×10^12 L/mol/s | 4.59 ± 0.06 ×10^4 L/mol | 1.26 | -7.945 ± 0.0311 kcal/mol | 1.94 µM | 4.50 ± 0.06 ×10^12 L/mol/s | 4.50 ± 0.06 ×10^4 L/mol | 1.16 | -7.739 ± 0.019 kcal/mol | 3.5 µM | -16.39 ± 0.017 kcal/mol | −116.60 ± 0.11 J/mol/k | hydrogen bonds and van der Waals forces | O=C(O)c1ccc(-c2c3nc(c(-c4ccc(C(=O)O)cc4)c4ccc([nH]4)c(-c4ccc(C(=O)O)cc4)c4nc(c(-c5ccc(C(=O)O)cc5)c5ccc2[nH]5)C=C4)C=C3)cc1 [TCPP, meso-Tetra (4-carboxyphenyl) porphine] | Reversibility of PL inhibition (pancreatic lipase (PL) [3]): reversible; Vmax (pancreatic lipase (PL) [3]; inhibitor C 12.65 μM): 0.0042 ± 0.0011 ΔOD/min; Vmax (pancreatic lipase (PL) [3]; inhibitor C 31.61 μM): 0.0037 ± 0.0008 ΔOD/min; Vmax (pancreatic lipase (PL) [3]; inhibitor C 63.23 μM): 0.0027 ± 0.0012 ΔOD/min; Vmax (pancreatic lipase (PL) [3]; inhibitor C 126.45 μM): 0.0015 ± 0.0004 ΔOD/min; Vmax (pancreatic lipase (PL) [3]; inhibitor C 189.68 μM): 0.0012 ± 0.0003 ΔOD/min; Ki (pancreatic lipase (PL) [3]): 53.49 ± 0.141 µM
